Consider six molecules from patent publication US10450299B2, “Substituted quinazoline derivatives as DNA methyltransferase inhibitors” (Pierre Fabre Medicament, priority 2015, dated 2019).

Usually EC50 stands for the concentration giving half of the maximal effect. A high value points to weaker potency. By melting point is commonly meant the temperature, or range, at which the solid turns liquid.

Series [1] concerns the target T1, His-DNMT1 (182 kDa, human) (Homo sapiens, UniProt P26358).
T1 construct: His; made in house
Description: DNMT1 assay (tritiated SAM Flashplate methylation assay). The series is classed as biochemical. Conditions: for inhibition at 10 µM: compound at 10 μM; for inhibition at 32 µM: compound at 32 μM. How it is done:
His-DNMT1 (182 kDa, human) was cloned, expressed and purified as described in Halby et al. (ChemBioChem 2012, 13, 157-65). The reaction was performed in a 10 μL total reaction volume in low volume NBS™ 384-well microplates (Corning), containing the tested compound (up to 1% DMSO), 1 μM of a SAM/[methyl-^3H] SAM (3 TBq/mmol, PerkinElmer) mix in a ratio of 3-to-1 (isotopic dilution 1*:3), 0.3 μM of biotinylated hemimethylated DNA duplex (5′-GATmCGCmCGATGmCGmCGAATmCGmCGATmCGATGmCGAT-3′ and BIOT-5′-[…]-3′), and 90 nM of DNMT1 in methylation buffer (20 mM HEPES pH 7.2, 1 mM EDTA, 50 mM KCl, 25 μg/mL BSA). The reaction was incubated at 37° C. for 2 hours. 8 μL are then transferred into a streptavidin 96-well scintillant coated Flashplate™ (PerkinElmer) containing 190 μL of 20 μM SAH in 50 mM Tris-HCl pH 7.4. The Flashplate™ was agitated at room temperature for 1 hour, washed three times with 200 μL of 0.05% Tween®-20 in 50 mM Tris-HCl pH 7.4, and read in 200 μL of 50 mM Tris-HCl pH 7.4 on TopCount NXT™ (PerkinElmer).

Series [2] concerns the target T2, human C-terminal DNMT3A (a.a. 623-908) (Homo sapiens, UniProt Q9Y6K1).
T2 construct: The human C-terminal DNMT3A (a.a. 623-908); made in house
Description: DNMT3A assay (restriction-based fluorescence assay). The series is classed as biochemical. Conditions: for inhibition at 1 µM: compound at 1 μM; for inhibition at 3.2 µM: compound at 3.2 μM. The source says: DNMT3A enzyme inhibition was adapted from the restriction-based fluorescence assay protocol described in Ceccaldi et al. (ChemBioChem 2011, 12, 1337-45). Briefly, a 5′-labelled biotin oligonucleotide is hybridized to its complementary strand labelled with 6-carboxyfluorescein at the 3′-end into a 384 well microplate (black Optiplates; Perkin Elmer) pre-coated with avidin. The duplex contains a unique CpG site overlapping with a restriction site of a methylation sensitive restriction enzyme. The human C-terminal DNMT3A (a.a. 623-908), produced as described in Gros et al. (Nucleic Acids Research 2013 41(19):e185), was added in each well (200 ng/well) and mixed with the chemical compounds at desired concentrations and freshly prepared AdoMet (20 μM final concentration) to start the reaction in a total volume of 50 μL. After 1 hour incubation at 37° C. each well were washed three times with PBS, Tween-20 0.05%, NaCl (500 mM) and three more times with PBST. Specific fluorescent signals were detected with the methylation-sensitive restriction enzyme HpyCH4IV (NEB) as described and measured on a Perkin Elmer Envision detector. The percentage of inhibition is reported. The formula used to calculate the percentage of inhibition is [(X−Y)/X]×100, where X is the signal determined in the absence of the inhibitor and Y is the signal obtained in the presence of the inhibitor. The concentration at which 50% of efficacy of inhibition is observed (EC50) was determined by analysis of a concentration range of the tested compound in triplicates. The non-linear regression fittings with sigmoidal dose-response (variable slope) were performed with GraphPad Prism 4.03 (GraphPad Software).

Series [3] concerns KG-1 human leukemia cells. Description: Anti-proliferative activity on KG-1 (ATPLite cell viability). The conditions noted are these: KG-1 cells; for inhibition at 0.1 µM: compound at 0.1 μM, read-out: % proliferation inhibition 0.1 μM; for inhibition at 1 µM: compound at 1 μM, read-out: % proliferation inhibition 1 μM; for inhibition at 5 µM: compound at 5 μM, read-out: % proliferation inhibition 5 μM; for inhibition at 10 µM: compound at 10 μM, read-out: % proliferation inhibition 10 μM. The series is classed as cell-based. How it is done:
Anti-Proliferative Activity. (on KG-1)
KG-1 human leukemia cells were obtained from the ATCC (USA) and cultivated in RPMI 1640 medium (with HEPES and Glutamine, BE12-115F, Lonza, France) supplemented with, respectively, 20% and 15% foetal calf serum (Lonza, France), at 37° C. and under 5% CO2. To measure the anti-proliferative properties of tested molecules, 2×10^4 cells are seeded at day 0 in a 96 wells plate. The compounds to be tested, stored at −20° C. as 10^−2 M stock solution in 100% DMSO, are freshly diluted on day 1 in RPMI 1640 medium, before adding a dose range of 3.2 nM to 10 μM to the cells. This treatment is repeated on day 2 and 3, and on day 4 cell viability is assessed using the ATPLite™ kit from Perkin (ATPlite™ 1 Step Luminescence Assay System, ref 3016739), following the provider instructions. The raw data are analyzed with GraphPad Prism software (v4.03) to generate EC50 values corresponding to the compound concentrations giving 50% reduction in cell viability. The values presented are the mean results of at least two independent experiments. […]
At the end of the experiment, cell viability was evaluated by determining the level of ATP released by viable cells.
EC50 values were determined with curve fitting analysis method (non linear regression model with a sigmoid dose response, variable Hill slope coefficient) provided by the Prism Software (GraphPad). Results were expressed as average EC50 values (concentration of tested compound that inhibits 50% of the maximum effect for the considered compound).
(Cellular ATP, detected with luciferase, serves as a proxy for viable cell number.)

The test system of series [4] is luciferase reporter gene under the control of the partially methylated CMV promoter in KG-1 cell line. The experiment in a line: Gene expression (CMV-Luc reactivation) in KG-1 cells. The series is classed as cell-based, human. The conditions noted are these: 24 h, induction factor vs DMSO control, mean of 3 experiments ± standard error; for Reactivation fold of luciferase gene reporter, 0.1 μM: compound at 0.1 μM; for Reactivation fold of luciferase gene reporter, 1 μM: compound at 1 μM; for Reactivation fold of luciferase gene reporter, 5 μM: compound at 5 μM; for Reactivation fold of luciferase gene reporter, 10 μM: compound at 10 μM. How it is done:
Gene Expression. (CMV-Luc Reactivation)
KG-1 cell line, stably transfected with the luciferase Firefly (Luc+ from pGL3 by Promega) reporter gene under the control of the CMV promoter (from pEGFP-N1 by Clontech) partially methylated (50%), is seeded at 20,000 cell per well in 96-well plate. After 24 h of incubation in the presence of the compounds or the solvant DMSO, the induction of the promoter is measured by quantification of luciferase with the Brite-lite™ assay system (Perkin Elmer) according to the manufacturer protocol. The luminescence is measured on EnVision™ Multilabel Plate Reader (Perkin Elmer) and the data are expressed in induction factor compared to the DMSO control condition.

T1 sequence (P26358 whole entry): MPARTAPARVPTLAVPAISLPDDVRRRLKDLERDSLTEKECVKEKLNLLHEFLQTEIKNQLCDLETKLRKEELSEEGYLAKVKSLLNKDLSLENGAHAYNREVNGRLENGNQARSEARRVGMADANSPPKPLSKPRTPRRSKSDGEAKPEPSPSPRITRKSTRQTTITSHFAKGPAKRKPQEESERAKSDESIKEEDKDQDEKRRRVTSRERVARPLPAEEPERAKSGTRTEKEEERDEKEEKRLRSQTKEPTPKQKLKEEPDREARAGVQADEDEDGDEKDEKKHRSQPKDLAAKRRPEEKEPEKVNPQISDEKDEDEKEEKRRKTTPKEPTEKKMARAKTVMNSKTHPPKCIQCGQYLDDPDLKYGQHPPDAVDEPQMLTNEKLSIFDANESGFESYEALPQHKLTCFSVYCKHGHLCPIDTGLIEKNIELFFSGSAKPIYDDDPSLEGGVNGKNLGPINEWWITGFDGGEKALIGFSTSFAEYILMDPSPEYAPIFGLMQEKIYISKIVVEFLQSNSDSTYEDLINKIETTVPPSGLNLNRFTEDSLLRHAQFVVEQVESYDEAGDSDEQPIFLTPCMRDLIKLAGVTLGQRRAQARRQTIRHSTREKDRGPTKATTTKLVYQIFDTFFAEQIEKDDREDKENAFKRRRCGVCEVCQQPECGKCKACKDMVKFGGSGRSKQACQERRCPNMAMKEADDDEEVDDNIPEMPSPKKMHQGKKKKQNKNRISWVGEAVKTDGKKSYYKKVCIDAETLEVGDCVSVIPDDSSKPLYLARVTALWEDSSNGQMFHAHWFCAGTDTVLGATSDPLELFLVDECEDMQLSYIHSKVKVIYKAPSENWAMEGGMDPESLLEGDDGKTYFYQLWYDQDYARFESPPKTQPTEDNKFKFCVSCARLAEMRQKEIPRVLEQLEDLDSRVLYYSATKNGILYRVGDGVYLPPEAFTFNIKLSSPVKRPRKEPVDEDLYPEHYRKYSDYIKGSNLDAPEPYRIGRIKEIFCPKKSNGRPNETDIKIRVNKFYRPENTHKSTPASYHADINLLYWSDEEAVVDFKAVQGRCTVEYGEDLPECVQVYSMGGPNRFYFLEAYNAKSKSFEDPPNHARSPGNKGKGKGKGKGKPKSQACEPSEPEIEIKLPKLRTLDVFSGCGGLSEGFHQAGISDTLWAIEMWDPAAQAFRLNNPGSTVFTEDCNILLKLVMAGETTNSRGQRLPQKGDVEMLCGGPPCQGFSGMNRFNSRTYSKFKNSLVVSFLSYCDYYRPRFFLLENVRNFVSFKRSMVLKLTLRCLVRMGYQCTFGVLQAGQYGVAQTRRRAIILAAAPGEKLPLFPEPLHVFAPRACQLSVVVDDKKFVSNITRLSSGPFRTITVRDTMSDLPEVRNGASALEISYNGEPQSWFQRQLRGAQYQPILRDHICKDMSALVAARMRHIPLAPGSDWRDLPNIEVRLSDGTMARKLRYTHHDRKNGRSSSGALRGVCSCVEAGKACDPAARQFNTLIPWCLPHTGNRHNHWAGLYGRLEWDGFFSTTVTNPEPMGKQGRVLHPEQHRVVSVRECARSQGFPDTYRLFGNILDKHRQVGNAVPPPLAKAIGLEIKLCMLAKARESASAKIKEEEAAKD
T2 sequence (Q9Y6K1 627-912): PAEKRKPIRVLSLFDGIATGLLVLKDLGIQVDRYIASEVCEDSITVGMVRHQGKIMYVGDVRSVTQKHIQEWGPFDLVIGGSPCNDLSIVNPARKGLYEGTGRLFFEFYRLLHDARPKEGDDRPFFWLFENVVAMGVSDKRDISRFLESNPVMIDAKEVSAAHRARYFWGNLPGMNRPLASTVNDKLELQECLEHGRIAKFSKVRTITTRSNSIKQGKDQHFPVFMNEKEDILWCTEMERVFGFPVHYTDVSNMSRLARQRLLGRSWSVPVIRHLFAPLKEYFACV

Consider `CCN(CC)CCNc1nc(NCCCc2ccccc2)c2ccc(OCC3CCN(CCNc4ccnc5ccccc45)CC3)cc2n1` [Compound D, 4-((3-phenylpropyl)amino)-N^2-(2-(diethylamino)ethylenediamine)-7-((1-(2-(quinolin-4-ylamino)ethyl)piperidin-4-yl)methoxy)quinazoline], for which, in series [1], the EC50 turned out to be 13 µM, the inhibition at 10 µM amounted to 35% and the inhibition at 32 µM is 98%. In series [2], the inhibition at 1 µM came to 52% and the inhibition at 3.2 µM amounted to 81%. Moreover, in series [3], the inhibition at 0.1 µM was -2.3%, the inhibition at 1 µM was 13.2%, the inhibition at 5 µM was found to be 79.7% and the inhibition at 10 µM was 99.5%. Also, in series [4], the “Reactivation fold of luciferase gene reporter, 0.1 μM” value (“Reactivation fold … 0.1 μM” below) is on record as 1.1 ± 0.0 fold; the “Reactivation fold of luciferase gene reporter, 1 μM” value is recorded as 1.7 ± 0.0 fold; the “Reactivation fold of luciferase gene reporter, 5 μM” value (“Reactivation fold … 5 μM” below) is reported as 12.7 ± 0.6 fold; the “Reactivation fold of luciferase gene reporter, 10 μM” value (from here on “Reactivation fold … 10 μM”) was found to be 1.1 ± 1.0 fold.
In the case of `Clc1nc(NCCCc2ccccc2)c2ccc(OCC3CCN(CCNc4ccncc4)CC3)cc2n1` [Compound H], in series [2], the inhibition at 1 µM stood at 0% and the inhibition at 3.2 µM amounted to 32%.
Consider `Clc1nc(NCCCc2ccccc2)c2ccc(OCC3CCN(CCNc4ccnc5ccccc45)CC3)cc2n1` [Compound B, 4-((3-phenylpropyl)amino)-2-chloro-7-((1-(2-(quinolin-4-ylamino)ethyl)piperidin-4-yl)methoxy)quinazoline], for which, in series [1], a half-maximal response (EC50) required 19 µM, the inhibition at 10 µM was found to be 5% and the inhibition at 32 µM came to 93%. Also, in series [2], the inhibition at 1 µM was 0% and the inhibition at 3.2 µM came out at 73%. Further, in series [3], the inhibition at 0.1 µM is -1.7%, the inhibition at 1 µM amounted to 3.8%, the inhibition at 5 µM was found to be 95.9% and the inhibition at 10 µM was found to be 99.9%. For the same molecule, in series [4], the “Reactivation fold … 0.1 μM” value worked out at 1.1 ± 0.0 fold; the “Reactivation fold of luciferase gene reporter, 1 μM” value is 1.4 ± 0.0 fold; the “Reactivation fold … 5 μM” value worked out at 5.8 ± 1.6 fold; the “Reactivation fold … 10 μM” value turned out to be 0.0 ± 0.0 fold.
Consider `Oc1ccc2c(NCCCc3ccccc3)ncnc2c1CN1CCN(CCNc2ccnc3ccccc23)CC1` [Compound A, 4-((3-phenylpropyl)amino)-8-((1-(2-(quinolin-4-ylamino)ethyl)piperazin-1-ylmethyl))quinazoline-7-ol], for which, in series [1], the inhibition at 10 µM turned out to be 0% and the inhibition at 32 µM is 0%. In series [2], the inhibition at 1 µM came out at 0% and the inhibition at 3.2 µM came out at 18%. In series [3], the inhibition at 0.1 µM was -0.8%, the inhibition at 1 µM is 6.1%, the inhibition at 5 µM was found to be 29.7% and the inhibition at 10 µM was 84.5%. In series [4], the “Reactivation fold … 0.1 μM” value is listed as 1.1 ± 0.1 fold; the “Reactivation fold of luciferase gene reporter, 1 μM” value stood at 1.2 ± 0.1 fold; the “Reactivation fold … 5 μM” value worked out at 4.4 ± 0.5 fold; the “Reactivation fold … 10 μM” value turned out to be 6.0 ± 0.6 fold.
`COc1cc2c(NCCNc3cccc4ccccc34)nc(N3CCN(c4ccccc4)CC3)nc2cc1OCC1CCN(CCNc2ccnc3ccccc23)CC1` [F, N^1-(6-methoxy-2-(4-phenylpiperazin-1-yl)-7-((1-(2-(quinolin-4-ylamino)ethyl)piperidin-4-yl)methoxy)quinazolin-4-yl)-N^2-(naphtalen-1-yl)ethane-1,2-diamine]: the melting point lay within 180 to 181 °C. For the same molecule, in series [1], the midpoint of the response, the EC50, lay at 11.7 µM; the inhibition at 10 µM was 45%; the inhibition at 32 µM is 93%. For the same molecule, in series [2], the inhibition at 1 µM came out at 75% and the inhibition at 3.2 µM turned out to be 84%. In addition, in series [3], the inhibition at 0.1 µM amounted to 2%, the inhibition at 1 µM was 31.9%, the inhibition at 5 µM was found to be 99.6% and the inhibition at 10 µM turned out to be 99.9%. Moreover, in series [4], the “Reactivation fold … 0.1 μM” value turned out to be 1.1 ± 0.0 fold; the “Reactivation fold of luciferase gene reporter, 1 μM” value was 4.4 ± 0.4 fold; the “Reactivation fold … 5 μM” value is on record as 1.0 ± 0.8 fold; the “Reactivation fold … 10 μM” value was 0.0 ± 0.0 fold.
For the molecule `CN1CCN(c2nc(NCCCc3ccccc3)c3ccc(OCC4CCN(CCNc5ccnc6ccccc56)CC4)cc3n2)CC1` [Compound C, 4-((3-phenylpropyl)amino)-7-((1-(2-(quinolin-4-ylamino)ethyl)piperidin-4-yl)methoxy)-2-(4-methylpiperazin-1-yl)quinazoline], in series [1], the EC50 worked out at 23 µM, the inhibition at 10 µM was 0% and the inhibition at 32 µM turned out to be 94%. Moreover, in series [2], the inhibition at 1 µM was 0% and the inhibition at 3.2 µM worked out at 43%. Besides, in series [3], the inhibition at 0.1 µM was -3.1%, the inhibition at 1 µM was found to be 5.7%, the inhibition at 5 µM turned out to be 99.1% and the inhibition at 10 µM was determined as 99.7%. In series [4], the “Reactivation fold … 0.1 μM” value is 1.1 ± 0.0 fold; the “Reactivation fold of luciferase gene reporter, 1 μM” value is 1.7 ± 0.1 fold; the “Reactivation fold … 5 μM” value is recorded as 0.1 ± 0.0 fold; the “Reactivation fold … 10 μM” value is listed as 0.0 ± 0.0 fold.
